Assay: Study HDP-CDV-201: safety and tolerability (adverse events, laboratory abnormalities, discontinuations)
Type: in vivo, human (adult allogeneic HSCT recipients)
Method: Clinical Studies of HDP-CDV were performed and described in detail in the following Examples. For example, HDP-CDV-201 is a placebo-controlled, dose-escalating trial in HSCT CMV (R+) recipients, evaluating the ability of HDP-CDV to prevent or control CMV infection was carried out. Five cohorts were established in which participants or subjects received either placebo or the HDP-CDV orally, in doses ranging from 40 mg weekly (QW) to 200 mg twice weekly (BIW). Subjects who were post-HSCT were enrolled at the time of engraftment and randomized to HDP-CDV or placebo (3 to 1 ratio) and received blinded therapy until approximately 100 day post-transplantation. HDP-CDV doses were 40 mg QW, 100 mg QW, 200 mg QW, 200 mg BIW and 100 mg BIW. Escalation to the next dose was decided by the data monitoring committee after review of the safety data from the previous Cohort. Subjects who developed CMV disease or CMV infection requiring pre-emptive therapy with local standard of care were discontinued from blinded therapy and followed for 4 weeks. Subjects who completed treatment with blinded therapy were followed for 8 weeks post-therapy.
Data from Study HDP-CDV-201 also provided characterization of the safety and tolerability profile of HDP-CDV when administered for the prevention or control of CMV infection in high risk (R^+) post-HSCT adult subjects.
The Safety population (SAFETY) included all randomized subjects who took at least one dose of study treatment. This population was used to summarize safety outcomes based on the treatment actually received, in cases where a subject was treated contrary to the randomization schedule.
The safety and tolerability profile of HDP-CDV, including subject demographics and Baseline characteristics; the AE profile; and laboratory abnormalities of interest were analyzed in the cohorts followed in this investigation.
Subjects completing the treatment period received a full course of study medication; those completing the entire study attended visits through 8 weeks of follow up. Subjects who discontinued treatment may have done so for protocol specified reasons (e.g. development of clinically significant CMV infection requiring preemptive treatment with excluded anti-CMV medications) or for other reasons (e.g., withdrawal, adverse events, loss to follow-up). The disposition of subjects in Study HDP-CDV-201 during the double-blind, placebo-controlled treatment period (through Week 11) is listed by dosing Cohort in TABLE 23.
Adverse events were examined by severity to ensure that all safety signals were identified in this study population. Because of the frequency of events in HSCT recipients, particular attention was given to evaluation of Grade 3 […], 4 (severe), and 5 (fatal) adverse events.
Only those preferred terms for which at least one Grade 3 or higher event was experienced in any treatment group are listed. Cytomegalovirus-related AEs are excluded from this analysis.
HDP-CDV is a lipid conjugate of CDV. Because CDV is known to have adverse effects on renal function and bone marrow, decreased GFR and persistent neutropenia were identified as AEs of special interest. Key renal and hematological (TABLE 30) laboratory parameters were measured and listed below by Study HDP-CDV-201 treatment groups. TABLE 30 includes abnormal levels of serum creatinine, neutrophils, platelets, WBCs, and hemoglobin and includes data at Screening and during the treatment period.
A common metric for unit based dosing of medications is by weight (mg/kg). When the distribution of weights was examined for all subjects participating in the study, the median was 78 kg and the lower 25th percentile weight was approximately 65 kg, which translates to a cut-off of ˜3 mg/kg for a 200 mg total weekly dose. Based upon this approach, a cut-off of 3 mg/kg was used to assess the frequency of diarrhea and associated GI AEs reported for the subjects in Cohorts 3 or 4a (TABLE 40).

SMILES: CCCCCCCCCCCCCCCCOCCCOP(=O)(O)COC(CO)Cn1ccc(N)nc1=O (stereo not drawn) [HDP-CDV]
- TEAE GGT Increased, Frequency (100 mg QW): 1 (3.7%)
- TEAE GGT Increased, Grade 2 (100 mg QW): 1 (3.7%)
- TEAE GGT Increased, Grade 3 (100 mg QW): 0
- TEAE GGT Increased, Grade 4 (100 mg QW): 0
- TEAE GGT Increased, Grade 5 (100 mg QW): 0
- TEAE Generalized oedema, Frequency (100 mg QW): 0
- TEAE Generalized oedema, Grade 2 (100 mg QW): 0
- TEAE Generalized oedema, Grade 3 (100 mg QW): 0
- TEAE Generalized oedema, Grade 4 (100 mg QW): 0
- TEAE Generalized oedema, Grade 5 (100 mg QW): 0
- TEAE Hyperbilirubinaemia, Frequency (100 mg QW): 0
- TEAE Hyperbilirubinaemia, Grade 2 (100 mg QW): 0
- TEAE Hyperbilirubinaemia, Grade 3 (100 mg QW): 0
- TEAE Hyperbilirubinaemia, Grade 4 (100 mg QW): 0
- TEAE Hyperbilirubinaemia, Grade 5 (100 mg QW): 0
- TEAE Hyperglycaemia, Frequency (100 mg QW): 1 (3.7%)
- TEAE Hyperglycaemia, Grade 2 (100 mg QW): 0
- TEAE Hyperglycaemia, Grade 3 (100 mg QW): 1 (3.7%)
- TEAE Hyperglycaemia, Grade 4 (100 mg QW): 0
- TEAE Hyperglycaemia, Grade 5 (100 mg QW): 0
- TEAE Hyperkalemia, Frequency (100 mg QW): 1 (3.7%)
- TEAE Hyperkalemia, Grade 2 (100 mg QW): 0
- TEAE Hyperkalemia, Grade 3 (100 mg QW): 1 (3.7%)
- TEAE Hyperkalemia, Grade 4 (100 mg QW): 0
- TEAE Hyperkalemia, Grade 5 (100 mg QW): 0
- TEAE Hypocalcaemia, Frequency (100 mg QW): 0
- TEAE Hypocalcaemia, Grade 2 (100 mg QW): 0
- TEAE Hypocalcaemia, Grade 3 (100 mg QW): 0
- TEAE Hypocalcaemia, Grade 4 (100 mg QW): 0
- TEAE Hypocalcaemia, Grade 5 (100 mg QW): 0
- TEAE Hypokalaemia, Frequency (100 mg QW): 2 (7.4%)
- TEAE Hypokalaemia, Grade 2 (100 mg QW): 0
- TEAE Hypokalaemia, Grade 3 (100 mg QW): 0
- TEAE Hypokalaemia, Grade 4 (100 mg QW): 0
- TEAE Hypokalaemia, Grade 5 (100 mg QW): 0
- TEAE Hyponatraemia, Frequency (100 mg QW): 1 (3.7%)
- TEAE Hyponatraemia, Grade 2 (100 mg QW): 0
- TEAE Hyponatraemia, Grade 3 (100 mg QW): 0
- TEAE Hyponatraemia, Grade 4 (100 mg QW): 0
- TEAE Hyponatraemia, Grade 5 (100 mg QW): 0
- TEAE LFT Abnormal, Frequency (100 mg QW): 1 (3.7%)
- TEAE LFT Abnormal, Grade 2 (100 mg QW): 0
- TEAE LFT Abnormal, Grade 3 (100 mg QW): 0
- TEAE LFT Abnormal, Grade 4 (100 mg QW): 0
- TEAE LFT Abnormal, Grade 5 (100 mg QW): 0
- TEAE Leukocytosis, Frequency (100 mg QW): 0
- TEAE Leukocytosis, Grade 2 (100 mg QW): 0
- TEAE Leukocytosis, Grade 3 (100 mg QW): 0
- TEAE Leukocytosis, Grade 4 (100 mg QW): 0
- TEAE Leukocytosis, Grade 5 (100 mg QW): 0
- TEAE Nausea, Frequency (100 mg QW): 5 (18.5%)
- TEAE Nausea, Grade 2 (100 mg QW): 1 (3.7%)
- TEAE Nausea, Grade 3 (100 mg QW): 0
- TEAE Nausea, Grade 4 (100 mg QW): 0
- TEAE Nausea, Grade 5 (100 mg QW): 0
- TEAE Neutropenia, Frequency (100 mg QW): 4 (14.8%)
- TEAE Neutropenia, Grade 2 (100 mg QW): 1 (3.7%)
- TEAE Neutropenia, Grade 3 (100 mg QW): 2 (7.4%)
- TEAE Neutropenia, Grade 4 (100 mg QW): 1 (3.7%)
- TEAE Neutropenia, Grade 5 (100 mg QW): 0
- TEAE Pneumonia, Frequency (100 mg QW): 2 (7.4%)
- TEAE Pneumonia, Grade 2 (100 mg QW): 0
- TEAE Pneumonia, Grade 3 (100 mg QW): 1 (3.7%)
- TEAE Pneumonia, Grade 4 (100 mg QW): 1 (3.7%)
- TEAE Pneumonia, Grade 5 (100 mg QW): 0
- TEAE Pyrexia, Frequency (100 mg QW): 1 (3.7%)
- TEAE Pyrexia, Grade 2 (100 mg QW): 0
- TEAE Pyrexia, Grade 3 (100 mg QW): 0
- TEAE Pyrexia, Grade 4 (100 mg QW): 0
- TEAE Pyrexia, Grade 5 (100 mg QW): 0
- TEAE Renal Failure, Frequency (100 mg QW): 2 (7.4%)
- TEAE Renal Failure, Grade 2 (100 mg QW): 2 (7.4%)
- TEAE Renal Failure, Grade 3 (100 mg QW): 0
- TEAE Renal Failure, Grade 4 (100 mg QW): 0
- TEAE Renal Failure, Grade 5 (100 mg QW): 0
- TEAE Staphylococcal Bacteremia, Frequency (100 mg QW): 1 (3.7%)
- TEAE Staphylococcal Bacteremia, Grade 2 (100 mg QW): 0
- TEAE Staphylococcal Bacteremia, Grade 3 (100 mg QW): 1 (3.7%)
- TEAE Staphylococcal Bacteremia, Grade 4 (100 mg QW): 0
- TEAE Staphylococcal Bacteremia, Grade 5 (100 mg QW): 0
- TEAE Thrombocytopenia, Frequency (100 mg QW): 3 (11.1%)
- TEAE Thrombocytopenia, Grade 2 (100 mg QW): 1 (3.7%)
- TEAE Thrombocytopenia, Grade 3 (100 mg QW): 1 (3.7%)
- TEAE Thrombocytopenia, Grade 4 (100 mg QW): 1 (3.7%)
- TEAE Thrombocytopenia, Grade 5 (100 mg QW): 0
- TEAE Vomiting, Frequency (100 mg QW): 6 (22.2%)
- TEAE Vomiting, Grade 2 (100 mg QW): 2 (7.4%)
- TEAE Vomiting, Grade 3 (100 mg QW): 0
- TEAE Vomiting, Grade 4 (100 mg QW): 0
- TEAE Vomiting, Grade 5 (100 mg QW): 0
- Subjects Reporting Diarrhea as an AE (100 mg QW, n = 27): 8 (29.6%)
- Discontinuation: Death (100 mg QW, active treatment period): 0 Subject n (%)
- Discontinuation: Adverse event (100 mg QW, active treatment period through Week 11): 3 (11.1%) Subject n (%)
- subjects who discontinued study medications (100 mg weekly): 33%
- TEAE ALT increased, Frequency (200 mg BIW): 10 (33.3%)
- TEAE ALT increased, Grade 2 (200 mg BIW): 4 (13.3%)
- TEAE ALT increased, Grade 3 (200 mg BIW): 2 (6.7%)
- TEAE ALT increased, Grade 4 (200 mg BIW): 0
- TEAE ALT increased, Grade 5 (200 mg BIW): 0
- TEAE AML, Recurrent, Frequency (200 mg BIW): 0
- TEAE AML, Recurrent, Grade 2 (200 mg BIW): 0
- TEAE AML, Recurrent, Grade 3 (200 mg BIW): 0
- TEAE AML, Recurrent, Grade 4 (200 mg BIW): 0
- TEAE AML, Recurrent, Grade 5 (200 mg BIW): 0
- TEAE AST increased, Frequency (200 mg BIW): 7 (23.3%)
- TEAE AST increased, Grade 2 (200 mg BIW): 3 (10.0%)
- TEAE AST increased, Grade 3 (200 mg BIW): 0
- TEAE AST increased, Grade 4 (200 mg BIW): 0
- TEAE AST increased, Grade 5 (200 mg BIW): 0
- TEAE Abdominal pain, Frequency (200 mg BIW): 11 (36.7%)
- TEAE Abdominal pain, Grade 2 (200 mg BIW): 8 (26.7%)
